Reference: article PMC11396839, “Structure-Aided Computational Design of Triazole-Based Targeted Covalent Inhibitors of Cruzipain” (Molecules, 2024)
Values joined by “and” are separate entries in the source; they are usually repeats but may differ in a detail not shown here. Equal values may be shown once. Read-outs that look alike come from different tables or passages of the source.

Columns and labels:
[1] = target: T1, recombinant CZP (cruzain) (Trypanosoma cruzi, UniProt P25779); experiment: CZP inhibition, cleavage of fluorogenic substrate Z-FR-AMC (initial screening and IC50); format: biochemical, T. cruzi
T1 construct: gift of Allison Doak and Prof; Brian Shoichet (University of California San Francisco)
T1 sequence (P25779 123-337): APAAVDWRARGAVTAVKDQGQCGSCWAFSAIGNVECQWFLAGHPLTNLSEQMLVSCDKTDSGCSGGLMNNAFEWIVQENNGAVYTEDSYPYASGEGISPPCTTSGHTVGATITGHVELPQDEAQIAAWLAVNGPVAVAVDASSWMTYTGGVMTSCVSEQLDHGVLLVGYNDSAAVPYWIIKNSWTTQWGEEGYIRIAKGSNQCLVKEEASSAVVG
Method: The previously reported methods were followed to evaluate the in vitro activity against CZP [91, 92, 93, 94]. Allison Doak and Prof. Brian Shoichet (University of California San Francisco, San Francisco, CA, USA) generously provided recombinant CZP (cruzain). The enzyme activity was measured by monitoring the cleavage of the fluorogenic substrate Z-FR-AMC at 25 °C. Unless stated otherwise, assays were performed using 2.5 μ M of substrate ( KM = 0.5 ± 0.1 μ M) and 0.5 nM CZP in a 0.1 M sodium acetate buffer, pH 5.5, 0.01% Triton X-100 and 2 mM β -mercaptoethanol. DMSO and 1 μ M E-64 were employed as negative and positive controls, respectively, in all assays. Fluorescence was monitored at 340/440 nm (excitation/emission) over time in a Biotec 87 Synergy 2 fluorimeter at the Multiuser Laboratory of the Biochemistry and Immunology Department (UFMG, Belo Horizonte, Brazil). All assays were performed in triplicate in two independent experiments.
Initial screening. For the initial screening against CZP, compounds at 100 μ M were tested against CZP with and without a 10min pre-incubation with the enzyme. The fluorescence was monitored for 10 min at 5 s intervals. DMSO and E-64 were employed in all assays as negative and positive controls, respectively. Initial velocities of the negative control (DMSO) were compared to those in the presence of compounds to calculate the percentage of inhibition. The reported values correspond to the mean and standard error of the mean (SEM) of experiments performed in triplicate in two independent experiments.
IC50 determination. Compounds in at least eight distinct compound concentrations (400 μ M, 100 μ M, 25 μ M, 6.25 μ M, 1.5 μ M, 0.4 μ M, 0.1 μ M and 0.025 μ M) were incubated with CZP for 10 min, and once the substrate was added, the fluorescence was monitored for 10 min at 5 s intervals. IC50 curves were obtained from a non-linear fit of the inhibition values versus the logarithmic concentration of the compounds. The reported IC50 values are the mean and SEM of two independent measurements performed in triplicate.

[2] = target: T2, recombinant human cathepsin L (hCatL) (Homo sapiens, UniProt P07711); experiment: hCatL screening, cleavage of Z-FR-AMC; format: biochemical; settings: for selectivity for CZP over hCatL in words: 100 μM; for inhibition at 100 µM: 10 min incubation, read-out: % hCatL inhib.
T2 construct: purchased Sigma-Aldrich
T2 sequence (P07711 114-333): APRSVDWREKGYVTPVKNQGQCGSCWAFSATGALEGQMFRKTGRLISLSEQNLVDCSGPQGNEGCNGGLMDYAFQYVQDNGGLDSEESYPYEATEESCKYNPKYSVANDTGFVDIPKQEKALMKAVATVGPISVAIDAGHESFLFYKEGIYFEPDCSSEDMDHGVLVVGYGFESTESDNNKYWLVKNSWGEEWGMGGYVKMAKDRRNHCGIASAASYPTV
Method: The recombinant human cathepsin L (hCatL) (Sigma-Aldrich) was activated prior to the assays. First, 10 ng/ μ L of the enzyme was incubated in the activation buffer (50 mM MES, pH 6, 1 mM EDTA, 5mM DTT) for 30 min at 37 °C. hCatL activity was measured based on the cleavage of the fluorescent substrate Z-FR-AMC in a Biotec 87 Synergy 2 fluorimeter at the Multiuser Laboratory of the Biochemistry and Immunology Department (UFMG, Brazil). The assays were executed in 96-well round bottom black plates in 50 mM MES buffer, pH 6, containing 1 mM EDTA, 5 mM DTT, 0.001% Triton-X100, 5 pg/ μ L enzyme and 25 μ M Z-FR-AMC at 37 °C. The triazole-based derivatives were tested against hCatL, at 100 μ M, with a 10 min pre-incubation with the enzyme. The initial velocities of the DMSO control were compared to those in the presence of the compounds. Assays were executed in triplicate in two independent experiments, and enzyme activity was measured for 20 min.

Vero cells = experiment: Cytotoxicity assay, Alamar blue; format: cell-based; settings: 50 μM, 96 h incubation
Method: To evaluate the viability of Vero cells, the Alamar blue method was followed. First, 10^4 Vero cells/well in 100 μ L MEM-10% FBS were seeded in 96-well culture plates. After 24 h, 50 μ M inhibitor solution was added to cell monolayers and incubated for 96 h. After incubation, resazurin solution (final concentration 10 μ g·mL^−1) was added to each well, and fluorescence was measured after 2 h in a Synergy HTX multi-mode microplate reader (Biotek Instruments, Winooski, VT, USA) using the […] filters. Each condition was tested in triplicate and in at least three independent experiments.

[3] = test system: T. cruzi (Tulahuen trypomastigotes overexpressing β-galactosidase) in Vero cells; experiment: T. cruzi inhibition assay, infection model in Vero cells, β-galactosidase activity; format: cell-based, Trypanosoma cruzi; settings: for anti-T. cruzi/cytotoxicity balance in words: 50 μM (Ald-4 20 μM)
Method: To perform the assay, the drug screening method reported by Buckner et al. was adapted. Vero cells were seeded at 1 × 10^4 per well on 96-well culture plates in 100 μ L MEM-5% FBS. Tulahuen trypomastigotes overexpressing the E. coli β -galactosidase protein were distributed in triplicates on the plate. After a 2 h incubation at 37 °C, the culture media were extracted and replaced with fresh MEM-5% FBS with 1 μ M, 10 μ M or 50 μ M solutions of the triazole-based inhibitors, and the plate was incubated another 72 h at 37 °C. Ninety-six hours post infection, the cell culture media were removed and cells and intracellular amastigotes were lysed in 100 μ L lysis buffer (25 mM Tris pH 8, 2 mM EDTA, 2 mM DTT, 1% Triton X-100, 10% glycerol in ultrapure MQ water) for 10 min at 37 °C. Then, 100 μ L 2× reaction buffer (200 mM sodium phosphate pH 8, 2 mM MgCl2, 100 mM 2-mercaptoethanol and 1.33 mg.mL^−1 o-nitrophenyl- β -galactoside (ONPG)) was added and the reaction was allowed to proceed until a yellow color developed (1–2 h at 37 °C). The absorbance at 420 nm was measured in a Synergy HTX multi-mode microplate reader (Biotek Instruments, Winooski, VT, USA) and normalized to the value obtained for the infection in the absence of inhibitors. To determine its IC50, Ald-6 was evaluated at nine different concentrations (0.098, 0.195, 0.39, 0.78, 1.56 3.13 6.25, 12.5 and 50.0 μ M), following the same protocol. Each infection condition and inhibitor were tested in triplicates in four independent experiments.

CZP [4] = target: T3, CZP (Trypanosoma cruzi, UniProt P25779); experiment: Aggregation assays (Triton X-100 sensitivity, BSA preincubation) on CZP; format: biochemical, T. cruzi; settings: for CZP activity inhibition percentage, Triton 0% + BSA: compound at its IC50, 10-min preincubation with 4 mg/mL BSA; for CZP activity inhibition percentage, Triton 0% / CZP activity inhibition percentage, Triton 0.01% / CZP activity inhibition percentage, Triton 0.1%: compound at its IC50, 10 min preincubation
T3 construct: gift of Allison Doak and Prof; Brian Shoichet (University of California San Francisco)
T3 sequence (P25779 123-337): as the sequence (P25779 123-337) above
Method: Aggregation Assays. To evaluate detergent sensitivity, CZP was pre-incubated with compounds at their IC50 for 10 min at room temperature in varying concentrations of Triton X-100 (0%, 0.1% and 0.01%). […] For comparison, the four conditions were assayed in parallel. Aggregation was excluded when the difference in inhibition percentages between the different conditions was less than 20%.

CZP [5] = target: T3, CZP; experiment: Jump dilution assay on CZP; format: biochemical, T. cruzi; settings: for slope of progress curve relative to control (DMSO): 10 × IC50 with 100 × [CZP] 30 min, 100× dilution, 2 h monitoring; for mode of CZP inhibition from jump dilution: in words
Method: Jump dilution assay. […] Fluorescence intensities were monitored continuously for 2 h.

[6] = test system: T. cruzi (Tulahuen trypomastigotes overexpressing β-galactosidase) in Vero cells; experiment: T. cruzi inhibition assay, infection model in Vero cells, β-galactosidase activity; format: cell-based, Trypanosoma cruzi; settings: 50 μM, 72 h p.i.
CZP [7] = target: T3, CZP; experiment: Mechanism of CZP inhibition (Michaelis-Menten, Lineweaver-Burk); format: biochemical, T. cruzi
Method: Mechanism of inhibition. […] The results were calculated by nonlinear (Michaelis–Menten) and linear regression (Lineweaver–Burk plots). The effect of the inhibitor concentration on the KMapp and its Ki was evaluated by the general linear F-test.

T. cruzi = test system: T. cruzi; design: method as in PMID 18435536, PMID 9705954, PMID 20088534; settings: cited from earlier work
[8] = 100 μM, 10 min pre-incubation of the enzyme with compound, read-out: % CZP inh.
[9] = read-out: % CZP inhib. wo/inc., 100 μM, without prior incubation
[10] = 10 min incubation with CZP, mean ± SEM of two independent experiments, read-out: IC50 (μM) against CZP

Structure (SMILES)	inhibition at 100 µM [1, 8] [%]	selectivity for CZP over hCatL in words [2]	inhibition at 100 µM [2] [%]	cytotoxicity, uninfected Vero cell viability in words (Vero cells)	inhibition at 100 µM [1, 9] [%]	anti-T. cruzi/cytotoxicity balance in words [3]	CZP activity inhibition percentage, Triton 0% + BSA (CZP [4]) [%]	CZP activity inhibition percentage, Triton 0% (CZP [4]) [%]	CZP activity inhibition percentage, Triton 0.01% (CZP [4]) [%]	CZP activity inhibition percentage, Triton 0.1% (CZP [4]) [%]	slope of progress curve relative to control (DMSO) (CZP [5])	mode of CZP inhibition from jump dilution (CZP [5])	reduction of infection [6] [%]	IC50 [1, 10] [µM]	IC50 (T. cruzi)	other results
COC(=O)C(CS)n1cc(C(NCc2ccc3c(c2)OCO3)C2CCCCC2)nn1 (stereo not drawn) [Es-14]	≥ 47	selective CZP inhibitors	0	significantly reduced cell viability												
O=CC(CO)n1cc(C(NCc2ccc3c(c2)OCO3)C2CCCCC2)nn1 (stereo not drawn) [Ald-10]	87 ± 1	selective CZP inhibitors	7 ± 2	low cytotoxicity	21 ± 1	acceptable anti-T. cruzi/cytotoxicity balance	43± 2	47± 6	43± 2	46± 8	~24%	covalent irreversible inhibition	97			IC50 [1]: 3.4 ± 0.5 µM; reduction of T. cruzi viability ([3]; 10 μM): 38%
COC(=O)C(CCCNC(=N)N)n1cc(C(NCc2ccc3c(c2)OCO3)C2CCCCC2)nn1 (stereo not drawn) [Es-15]		selective CZP inhibitors	26 ± 16			acceptable anti-T. cruzi/cytotoxicity balance	40± 3	44± 5	41± 1	36± 7				6.8 ± 0.3		inhibition at 100 µM ([1]; 100 μM, without prior incubation, read-out: % CZP inhib. wo/inc.): 81 ± 2%; Ki (CZP [7]; calculated, general linear F-test p = 0.0127): 3 ± 1 µM; mechanism of CZP inhibition (CZP [7]; in words): mixed mechanism of inhibition; α value (CZP [7]; mixed-model fit of Michaelis-Menten data): 8.3
NCCCCC(C=O)n1cc(C(NCc2ccc3c(c2)OCO3)C2CCCCC2)nn1 (stereo not drawn) [Ald-6]	81 ± 2	selective CZP inhibitors	26 ± 5	low cytotoxicity	18 ± 3	acceptable anti-T. cruzi/cytotoxicity balance	37± 3	43± 5	31± 3	44± 4	about 12%	covalent irreversible inhibition	97	3.3 ± 0.3		reduction in T. cruzi infection ([3]; 1 μM): 27%; parasite survival ([3]; 10 μM, after 72 h of incubation): 7%; IC50 ([3]; Trypanosoma cruzi, TULAHUEN, Vero, read-out: IC50^Tc): 3.2 ± 0.4 µM; IC50^Tc/IC50^CZP ratio ([3]; translation ratio): 0.97 ± 0.16
CN1CCN(C(=O)N[C@@H](Cc2ccccc2)C(=O)N[C@H](/C=C/S(=O)(=O)c2ccccc2)CCc2ccccc2)CC1 [K777]															~10 µM and 10 µM	
CCCCC(C(=O)COc1c(F)c(F)cc(F)c1F)n1cc([C@@](C)(NCc2ccc3ncccc3c2)C(C)C)nn1 (stereo partly drawn) [Ts-370]															5.1 µM	
